Biological target: hemoglobin (Homo sapiens, UniProt P68871+P69905)
Assay: Stability of hemoglobin in samples preserved at 37° C. in preservation solution containing no haptoglobin, Hb measured by latex agglutination method (Examples 8, 9 and Table 10)
Conditions: for Hb concentration / Recovery ratio with respect to Hb after 0 days: no phenylboronic acid, sugar 100 mmol/L; for recovery ratio of hemoglobin in the sample: sugar further added to phenylboronic acid 0.5 mmol/L, no haptoglobin, Feces 1, Feces 2, Feces 3
Outline: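 Latex agglutination gave Hb concentration after storage at 37 °C for up to 62 h. Preservation solution (HEPES 40 mmol/L pH 6.8, BSA, NaN3, no haptoglobin) contained 0–2.5 mmol/L phenylboronic acid, some with added sugars (10–250 mmol/L). Samples held about 300 μg/L Hb, with or without 0.5% feces.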

Chain of hemoglobin (P69905 2-142): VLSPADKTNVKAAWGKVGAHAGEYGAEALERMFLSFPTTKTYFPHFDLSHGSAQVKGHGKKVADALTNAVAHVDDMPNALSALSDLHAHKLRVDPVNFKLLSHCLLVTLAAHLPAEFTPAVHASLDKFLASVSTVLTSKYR
Chain of hemoglobin (P68871 2-147): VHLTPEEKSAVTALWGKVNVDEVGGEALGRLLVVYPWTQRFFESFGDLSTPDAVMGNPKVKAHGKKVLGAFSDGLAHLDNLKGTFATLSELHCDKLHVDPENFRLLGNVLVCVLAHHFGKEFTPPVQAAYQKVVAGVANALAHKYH

For OC[C@H]1O[C@@](CO)(O[C@H]2O[C@H](CO)[C@@H](O)[C@H](O)[C@H]2O)[C@@H](O)[C@@H]1O [Sucrose, sucrose], the Hb concentration (Feces 1, 0 h at 37° C.) was 271 µg/L, the “Recovery ratio with respect to Hb after 0 days” value (from here on “Recovery ratio … after 0 days”) (Feces 1, 0 h at 37° C.) was 100% and the Hb concentration (Feces 1, 16 h at 37° C.) was 137 µg/L. The “Recovery ratio … after 0 days” value (Feces 1, 16 h at 37° C.) was 51%, the Hb concentration (Feces 1, 38 h at 37° C.) was 45 µg/L and the “Recovery ratio … after 0 days” value (Feces 1, 38 h at 37° C.) was 16%. For the same compound, the Hb concentration (Feces 1, 62 h at 37° C.) was 10 µg/L, the “Recovery ratio … after 0 days” value (Feces 1, 62 h at 37° C.) was 4% and the Hb concentration (Feces 2, 0 h at 37° C.) was 255 µg/L. The “Recovery ratio … after 0 days” value (Feces 2, 0 h at 37° C.) was 100%, the Hb concentration (Feces 2, 16 h at 37° C.) was 57 µg/L and the “Recovery ratio … after 0 days” value (Feces 2, 16 h at 37° C.) was 22%. The Hb concentration (Feces 2, 38 h at 37° C.) was 3 µg/L, the “Recovery ratio … after 0 days” value (Feces 2, 38 h at 37° C.) was 1% and the Hb concentration (Feces 2, 62 h at 37° C.) was 0 µg/L. The “Recovery ratio … after 0 days” value (Feces 2, 62 h at 37° C.) was 0%, the Hb concentration (Feces 3, 0 h at 37° C.) was 257 µg/L and the “Recovery ratio … after 0 days” value (Feces 3, 0 h at 37° C.) was 100%. For the same compound, the Hb concentration (Feces 3, 16 h at 37° C.) was 67 µg/L, the “Recovery ratio … after 0 days” value (Feces 3, 16 h at 37° C.) was 26% and the Hb concentration (Feces 3, 38 h at 37° C.) was 0 µg/L. For the same compound, the “Recovery ratio … after 0 days” value (Feces 3, 38 h at 37° C.) was 0%, the Hb concentration (Feces 3, 62 h at 37° C.) was 0 µg/L and the “Recovery ratio … after 0 days” value (Feces 3, 62 h at 37° C.) was 0%. The Hb concentration (No feces, 0 h at 37° C.) was 278 µg/L, the “Recovery ratio … after 0 days” value (No feces, 0 h at 37° C.) was 100% and the Hb concentration (No feces, 16 h at 37° C.) was 245 µg/L. The “Recovery ratio … after 0 days” value (No feces, 16 h at 37° C.) was 88%, the Hb concentration (No feces, 38 h at 37° C.) was 229 µg/L and the “Recovery ratio … after 0 days” value (No feces, 38 h at 37° C.) was 83%. The Hb concentration (No feces, 62 h at 37° C.) was 224 µg/L, the “Recovery ratio … after 0 days” value (No feces, 62 h at 37° C.) was 81% and the “recovery ratio of hemoglobin in the sample” value was “further improved”.
In the case of OC[C@H]1O[C@H](O[C@H]2O[C@H](CO)[C@@H](O)[C@H](O)[C@H]2O)[C@H](O)[C@@H](O)[C@@H]1O [Trehalose, trehalose], the Hb concentration (Feces 1, 0 h at 37° C.) is reported as 268 µg/L, the “Recovery ratio … after 0 days” value (Feces 1, 0 h at 37° C.) is reported as 100% and the Hb concentration (Feces 1, 16 h at 37° C.) is reported as 133 µg/L. The “Recovery ratio … after 0 days” value (Feces 1, 16 h at 37° C.) was 50%, the Hb concentration (Feces 1, 38 h at 37° C.) was 41 µg/L and the “Recovery ratio … after 0 days” value (Feces 1, 38 h at 37° C.) was 15%. For the same compound, the Hb concentration (Feces 1, 62 h at 37° C.) was 8 µg/L, the “Recovery ratio … after 0 days” value (Feces 1, 62 h at 37° C.) was 3% and the Hb concentration (Feces 2, 0 h at 37° C.) was 254 µg/L. For the same compound, the “Recovery ratio … after 0 days” value (Feces 2, 0 h at 37° C.) was 100%, the Hb concentration (Feces 2, 16 h at 37° C.) was 54 µg/L and the “Recovery ratio … after 0 days” value (Feces 2, 16 h at 37° C.) was 21%. The Hb concentration (Feces 2, 38 h at 37° C.) was 1 µg/L, the “Recovery ratio … after 0 days” value (Feces 2, 38 h at 37° C.) was 0% and the Hb concentration (Feces 2, 62 h at 37° C.) was 0 µg/L. The “Recovery ratio … after 0 days” value (Feces 2, 62 h at 37° C.) was 0%, the Hb concentration (Feces 3, 0 h at 37° C.) was 260 µg/L and the “Recovery ratio … after 0 days” value (Feces 3, 0 h at 37° C.) was 100%. The Hb concentration (Feces 3, 16 h at 37° C.) was 48 µg/L, the “Recovery ratio … after 0 days” value (Feces 3, 16 h at 37° C.) was 19% and the Hb concentration (Feces 3, 38 h at 37° C.) was 0 µg/L. For the same compound, the “Recovery ratio … after 0 days” value (Feces 3, 38 h at 37° C.) was 0%, the Hb concentration (Feces 3, 62 h at 37° C.) was 0 µg/L and the “Recovery ratio … after 0 days” value (Feces 3, 62 h at 37° C.) was 0%. The Hb concentration (No feces, 0 h at 37° C.) was 280 µg/L, the “Recovery ratio … after 0 days” value (No feces, 0 h at 37° C.) was 100% and the Hb concentration (No feces, 16 h at 37° C.) was 241 µg/L. The “Recovery ratio … after 0 days” value (No feces, 16 h at 37° C.) was 86%, the Hb concentration (No feces, 38 h at 37° C.) was 228 µg/L and the “Recovery ratio … after 0 days” value (No feces, 38 h at 37° C.) was 81%. The Hb concentration (No feces, 62 h at 37° C.) was 219 µg/L, the “Recovery ratio … after 0 days” value (No feces, 62 h at 37° C.) was 78% and the “recovery ratio of hemoglobin in the sample” value was “further improved”.

From patent US12215140B2, “Method of stabilizing protein contained in specimen and solution for stabilizing protein contained in specimen” (EIKEN KAGAKU KABUSHIKI KAISHA, priority 2018, dated 2025)
